The results in this text go back to patent publication US8952157B2, “Apoptosis-inducing agents for the treatment of cancer and immune and autoimmune diseases” (AbbVie Inc., priority 2008, dated 2015).

The target in the first experiment is GST-Bcl-2 (Homo sapiens (Human), UniProt P10415). Put plainly: Time Resolved-Fluorescence Resonance Energy Transfer (TR-FRET) Bcl-2 binding assay.
Chain of GST-Bcl-2 (P10415 whole entry): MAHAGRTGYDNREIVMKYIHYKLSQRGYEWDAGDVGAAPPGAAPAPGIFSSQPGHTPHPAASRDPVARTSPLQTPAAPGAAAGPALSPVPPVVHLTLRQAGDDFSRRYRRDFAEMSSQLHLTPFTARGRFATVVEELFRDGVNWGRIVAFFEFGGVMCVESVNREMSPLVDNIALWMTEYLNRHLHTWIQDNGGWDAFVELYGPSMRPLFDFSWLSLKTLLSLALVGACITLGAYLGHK
Settings: not given
An outline of the steps:
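Competition TR-FRET: GST-Bcl-2 with fluorescent Bak peptide probe and Tb-anti-GST antibody, compounds serially diluted from 50 μM (2× start, 10% DMSO).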
`CC1(C)CCC(CN2CCN(c3ccc(C(=O)NS(=O)(=O)c4ccc(N[C@H]5CC[C@H](N6CCOCC6)CC5)c([N+](=O)[O-])c4)c(Oc4cc5cc[nH]c5c(F)c4F)c3)CC2)=C(c2ccc(Cl)cc2)C1` [Example 235, Trans-4-(4-{[2-(4-chlorophenyl)-4,4-dimethylcyclohex-1-en-1-yl]methyl}piperazin-1-yl)-2-[(6,7-difluoro-1H-indol-5-yl)oxy]-N-({4-[(4-morpholin-4-ylcyclohexyl)amino]-3-nitrophenyl}sulfonyl)benzamide] displayed an inhibition constant Ki of 0.039 nM. This lies in the picomolar range.

On to `CC1(C)CCC(CN2CCN(c3ccc(C(=O)NS(=O)(=O)c4ccc(N[C@H]5CC[C@H](N6CCOCC6)CC5)c([N+](=O)[O-])c4)c(Oc4cc5cc[nH]c5cc4Cl)c3)CC2)=C(c2ccc(Cl)cc2)C1` [Example 293, Trans-2-[(6-chloro-1H-indol-5-yl)oxy]-4-(4-{[2-(4-chlorophenyl)-4,4-dimethylcyclohex-1-en-1-yl]methyl}piperazin-1-yl)-N-({4-[(4-morpholin-4-ylcyclohexyl)amino]-3-nitrophenyl}sulfonyl)benzamide], for which the affinity corresponds to a Ki of 0.233 nM.

The experiment is the same for the next values; noted with them: GST-Bcl-2 1 nM, F-Bak peptide probe 100 nM, Tb-anti-GST antibody 1 nM; Ki by Wang's equation.
Turning to `CC1(C)CCC(CN2CCN(c3ccc(C(=O)NS(=O)(=O)c4cnc(OC5CCN(C6CCOCC6)CC5)c(C#N)c4)c(Oc4cc5cc[nH]c5cc4F)c3)CC2)=C(c2ccc(Cl)cc2)C1` [Example 325, 4-(4-{[2-(4-chlorophenyl)-4,4-dimethylcyclohex-1-en-1-yl]methyl}piperazin-1-yl)-N-({5-cyano-6-[(1-tetrahydro-2H-pyran-4-ylpiperidin-4-yl)oxy]pyridin-3-yl}sulfonyl)-2-[(6-fluoro-1H-indol-5-yl)oxy]benzamide], the affinity corresponds to a Ki of 0.183 nM.

`CN(C)CCCNc1ccc(S(=O)(=O)NC(=O)c2ccc(N3CCN(Cc4ccccc4-c4ccc(Cl)cc4)CC3)cc2Oc2cccc3c2CCC(=O)N3)cc1[N+](=O)[O-]` [Example 58, 4-(4-((4′-chloro-1,1′-biphenyl-2-yl)methyl)piperazin-1-yl)-N-((4-((3-(dimethylamino)propyl)amino)-3-nitrophenyl)sulfonyl)-2-((2-oxo-1,2,3,4-tetrahydroquinolin-5-yl)oxy)benzamide] returned an inhibition constant Ki of 0.155 nM.

`CCN(Cc1cccc(Oc2cc(N3CCN(Cc4ccccc4-c4ccc(Cl)cc4)CC3)ccc2C(=O)NS(=O)(=O)c2ccc(NCC3CCOCC3)c([N+](=O)[O-])c2)c1)C(=O)OC(C)(C)C` [Example 79, tert-butyl 3-(5-(4-((4′-chloro-1,1′-biphenyl-2-yl)methyl)piperazin-1-yl)-2-((((3-nitro-4-((tetrahydro-2H-pyran-4-ylmethyl)amino)phenyl)sulfonyl)amino)carbonyl)phenoxy)benzyl(ethyl)carbamate]: the inhibition constant Ki came to 99.8 nM.

`CC1(C)CCC(CN2CCN(c3ccc(C(=O)NS(=O)(=O)c4ccc(NCC5CCOCC5)c([N+](=O)[O-])c4)c(Oc4ccc5[nH]cc(Cl)c5c4)c3)CC2)=C(c2ccc(Cl)cc2)C1` [Example 265, 2-[(3-chloro-1H-indol-5-yl)oxy]-4-(4-{[2-(4-chlorophenyl)-4,4-dimethylcyclohex-1-en-1-yl]methyl}piperazin-1-yl)-N-({3-nitro-4-[(tetrahydro-2H-pyran-4-ylmethyl)amino]phenyl}sulfonyl)benzamide] returned a Ki of 0.363 nM.

In turn, `CN1CCC(Nc2ccc(S(=O)(=O)NC(=O)c3ccc(N4CCN(CC5=C(c6ccc(Cl)cc6)CC(C)(C)OC5)CC4)cc3Oc3cccc(Br)c3)cc2[N+](=O)[O-])CC1` [Example 160, 2-(3-bromophenoxy)-4-(4-{[4-(4-chlorophenyl)-6,6-dimethyl-5,6-dihydro-2H-pyran-3-yl]methyl}piperazin-1-yl)-N-({4-[(1-methylpiperidin-4-yl)amino]-3-nitrophenyl}sulfonyl)benzamide] returned a Ki of 0.028 nM. This Ki lies about 13-fold lower than the previous one.

The molecule `CC1(C)CCC(CN2CCN(c3ccc(C(=O)NS(=O)(=O)c4ccc(N[C@@H]5CCN(C6CC6)C5)c([N+](=O)[O-])c4)c(Oc4cnc(N)c(Cl)c4)c3)CC2)=C(c2ccc(Cl)cc2)C1` [Example 370, 2-[(6-amino-5-chloropyridin-3-yl)oxy]-4-(4-{[2-(4-chlorophenyl)-4,4-dimethylcyclohex-1-en-1-yl]methyl}piperazin-1-yl)-N-[(4-{[(3R)-1-cyclopropylpyrrolidin-3-yl]amino}-3-nitrophenyl)sulfonyl]benzamide] showed a Ki of under 0.01 nM.

Consider `COc1cc2[nH]ccc2cc1Oc1cc(N2CCN(CC3=C(c4ccc(Cl)cc4)CC(C)(C)CC3)CC2)ccc1C(=O)NS(=O)(=O)c1ccc(NC2CCN(C3CCOCC3)CC2)c([N+](=O)[O-])c1` [Example 227, 4-(4-{[2-(4-chlorophenyl)-4,4-dimethylcyclohex-1-en-1-yl]methyl}piperazin-1-yl)-2-[(6-methoxy-1H-indol-5-yl)oxy]-N-({3-nitro-4-[(1-tetrahydro-2H-pyran-4-ylpiperidin-4-yl)amino]phenyl}sulfonyl)benzamide], for which the affinity, expressed as Ki, was 0.174 nM.

As to `CN(C)Cc1ccc(Oc2cc(N3CCN(Cc4ccccc4-c4ccc(Cl)cc4)CC3)ccc2C(=O)NS(=O)(=O)c2ccc(NCC3CCOCC3)c([N+](=O)[O-])c2)cc1` [Example 75, 4-(4-((4′-chloro-1,1′-biphenyl-2-yl)methyl)piperazin-1-yl)-2-(4-((dimethylamino)methyl)phenoxy)-N-((3-nitro-4-((tetrahydro-2H-pyran-4-ylmethyl)amino)phenyl)sulfonyl)benzamide], the inhibition constant Ki turned out to be 76.8 nM.

`CN(C)CCCNc1ccc(S(=O)(=O)NC(=O)c2ccc(N3CCN(Cc4ccccc4-c4ccc(Cl)cc4)CC3)cc2Oc2cccc(CO)c2)cc1[N+](=O)[O-]` [Example 107, 4-(4-((4′-chloro-1,1′-biphenyl-2-yl)methyl)piperazin-1-yl)-N-((4-((3-(dimethylamino)propyl)amino)-3-nitrophenyl)sulfonyl)-2-(3-(hydroxymethyl)phenoxy)benzamide] came in with an inhibition constant (Ki) of 0.331 nM.

In turn, `CC1(C)CCC(CN2CCN(c3ccc(C(=O)NS(=O)(=O)c4ccc(NC5CCN(CCO)CC5)c([N+](=O)[O-])c4)c(Oc4cccc(Cl)c4)c3)CC2)=C(c2ccc(Cl)cc2)C1` [Example 162, 2-(3-chlorophenoxy)-4-(4-{[2-(4-chlorophenyl)-4,4-dimethylcyclohex-1-en-1-yl]methyl}piperazin-1-yl)-N-[(4-{[1-(2-hydroxyethyl)piperidin-4-yl]amino}-3-nitrophenyl)sulfonyl]benzamide] returned an inhibitory constant (Ki) of 0.048 nM.

`COc1ccccc1Oc1cc(N2CCN(CC3=C(c4ccc(Cl)cc4)CC(C)(C)CC3)CC2)ccc1C(=O)NS(=O)(=O)c1ccc(NC2CCN(C)CC2)c([N+](=O)[O-])c1` [Example 180, 4-(4-{[2-(4-chlorophenyl)-4,4-dimethylcyclohex-1-en-1-yl]methyl}piperazin-1-yl)-2-(2-methoxyphenoxy)-N-({4-[(1-methylpiperidin-4-yl)amino]-3-nitrophenyl}sulfonyl)benzamide] came in with a Ki of 0.112 nM. This Ki lies about 2.3-fold higher than the previous one.

For `CC(C)c1cc(Oc2cc(N3CCN(CC4=C(c5ccc(Cl)cc5)CC(C)(C)CC4)CC3)ccc2C(=O)NS(=O)(=O)c2ccc(NCC3CCOCC3)c([N+](=O)[O-])c2)cnc1N` [Example 365, 2-[(6-amino-5-isopropylpyridin-3-yl)oxy]-4-(4-{[2-(4-chlorophenyl)-4,4-dimethylcyclohex-1-en-1-yl]methyl}piperazin-1-yl)-N-({3-nitro-4-[(tetrahydro-2H-pyran-4-ylmethyl)amino]phenyl}sulfonyl)benzamide], the inhibition constant Ki is 4.55 nM. Against the preceding molecule, the Ki is about 41-fold higher.

Turning to `CC1(C)CC(c2ccc(Cl)cc2)=C(CN2CCN(c3ccc(C(=O)NS(=O)(=O)c4ccc(NCC5CCOCC5)c([N+](=O)[O-])c4)c(Oc4cc5cc[nH]c5cc4Cl)c3)CC2)CO1` [Example 275, 2-[(6-chloro-1H-indol-5-yl)oxy]-4-(4-{[4-(4-chlorophenyl)-6,6-dimethyl-5,6-dihydro-2H-pyran-3-yl]methyl}piperazin-1-yl)-N-({3-nitro-4-[(tetrahydro-2H-pyran-4-ylmethyl)amino]phenyl}sulfonyl)benzamide], the Ki is 0.081 nM.

Regarding `CC(=O)Nc1cccc(Oc2cc(N3CCN(CC4=C(c5ccc(Cl)cc5)CC(C)(C)CC4)CC3)ccc2C(=O)NS(=O)(=O)c2ccc(NC3CCN(C4CCOCC4)CC3)c([N+](=O)[O-])c2)c1` [Example 225, 2-[3-(acetylamino)phenoxy]-4-(4-{[2-(4-chlorophenyl)-4,4-dimethylcyclohex-1-en-1-yl]methyl}piperazin-1-yl)-N-({3-nitro-4-[(1-tetrahydro-2H-pyran-4-ylpiperidin-4-yl)amino]phenyl}sulfonyl)benzamide], the affinity corresponds to a Ki of 3.28 nM. This Ki is about 40-fold higher than that of the molecule before.

Molecule `CN1CCC(Nc2ccc(S(=O)(=O)NC(=O)c3ccc(N4CCN(CC5=C(c6ccc(Cl)cc6)CC(C)(C)CC5)CC4)cc3Oc3cccc(F)c3Cl)cc2[N+](=O)[O-])CC1` [Example 177, 2-(2-chloro-3-fluorophenoxy)-4-(4-{[2-(4-chlorophenyl)-4,4-dimethylcyclohex-1-en-1-yl]methyl}piperazin-1-yl)-N-({4-[(1-methylpiperidin-4-yl)amino]-3-nitrophenyl}sulfonyl)benzamide] gave a Ki of 0.037 nM.

As to `CC1(C)CCC(CN2CCN(c3ccc(C(=O)NS(=O)(=O)c4ccc(OCC5(F)CCOCC5)c(Cl)c4)c(Oc4cnc(N)c(Cl)c4)c3)CC2)=C(c2ccc(Cl)cc2)C1` [Example 404, 2-[(6-amino-5-chloropyridin-3-yl)oxy]-N-({3-chloro-4-[(4-fluorotetrahydro-2H-pyran-4-yl)methoxy]phenyl}sulfonyl)-4-(4-{[2-(4-chlorophenyl)-4,4-dimethylcyclohex-1-en-1-yl]methyl}piperazin-1-yl)benzamide], the affinity, expressed as Ki, was 0.069 nM.

Consider `CN1CCN(Nc2ccc(S(=O)(=O)NC(=O)c3ccc(N4CCN(CC5=C(c6ccc(Cl)cc6)CC(C)(C)OC5)CC4)cc3Oc3cccc(Cl)c3)cc2[N+](=O)[O-])CC1` [Example 185, 2-(3-chlorophenoxy)-4-(4-{[4-(4-chlorophenyl)-6,6-dimethyl-5,6-dihydro-2H-pyran-3-yl]methyl}piperazin-1-yl)-N-({4-[(4-methylpiperazin-1-yl)amino]-3-nitrophenyl}sulfonyl)benzamide], for which the inhibition constant Ki came to 0.083 nM.
